Source: article PMC7037546, “High Cell Selectivity and Bactericidal Mechanism of Symmetric Peptides Centered on D-Pro–Gly Pairs” (International Journal of Molecular Sciences, 2020)
Converted amounts (≈) assume the structure as drawn. Non-standard residues stand in square brackets, D forms with d. Residues, ends and D or L forms follow the SMILES beside them.

Experiments:
Gram-negative bacteria = settings: 16 h
Protocol: (§1) The antimicrobial activity of the designed peptides was examined using the micro-dilution method described previously. The bacteria were cultured for 16 h in MHB at 37 °C, and the microbial suspension was diluted to a final concentration of 10^5 colony-forming units (CFU)/mL. Then, 50 µL of MHB containing different concentrations peptides (0.25–256 µM) was mixed with 50 µL of bacterial solution, and the mixture was added to a 96-well plate. […] The assays were performed three times.

S. aureus ATCC29213 = settings: ATCC29213, 16 h
Protocol: as §1

[1] = system: Salmonella Pullorum NCTC5776; settings: NCTC5776, 16 h
Protocol: as §1

E. coli K88 = settings: micro-dilution in MHB, 10^5 CFU/mL, 16 h, OD 492 nm, performed three times
Protocol: as §1

[2] = system: Staphylococcus aureus ATCC25923; settings: ATCC25923, 16 h
Protocol: as §1

[3] = system: Pseudomonas aeruginosa ATCC27853; settings: ATCC27853, 16 h
Protocol: as §1

[4] = system: Enterococcus faecalis ATCC29212; settings: ATCC29212, 16 h
Protocol: as §1

[5] = system: methicillin-resistant S. aureus ATCC43300; settings: ATCC43300, 16 h
Protocol: as §1

[6] = system: Klebsiella pneumonia CMCC46117; settings: CMCC46117, 16 h
Protocol: as §1

RAW 264.7 cells = assay: Cytotoxicity, CCK-8 assay; format: cell-based, murine; settings: 64 μM peptide, 16 h, CCK-8, OD 450 nm
Protocol: (§2) The cytotoxicity was detected according to a CCK-8 assay as described previously. Briefly, RAW 264.7 and HEK293T cells were placed into 96-well plates at a density of 1.0–2.0 × 10^5, and then cultured for 16 h under conditions of 5% CO2. Then, two-fold diluted peptides in DMEM were added to the plates. After 16 h of culturing, CCK-8 (10%, v/v) was put into each well containing cell culture, and mixtures were cultured for 2 h. The cytotoxicity assay was examined by measuring the OD of the mixtures at 450 nm (Microplate reader, TECAN GENios F129004, Tecan, Salzburg, Austria). The assays were performed three times.

HEK293T cells = assay: Cytotoxicity, CCK-8 assay; format: cell-based, human; settings: 64 μM peptide, 16 h, CCK-8, OD 450 nm
Protocol: as §2

Gram-positive bacteria = assay: Geometric mean of MICs and therapeutic index, Gram (+); format: cell-based; settings: geometric mean over the Gram-positive strains of Table 2; 256 μM used when no activity at 128 μM
Protocol: as §1

[7] = system: Escherichia coli ATCC25922; assay: microbe, parasite or virus in culture; settings: ATCC25922, 16 h
Protocol: as §1

E. coli ATCC25922 = format: cell-based, Escherichia coli; settings: for MIC after pH treatment, pH 4 / MIC after pH treatment, pH 6 / MIC after pH treatment, pH 8 / MIC after pH treatment, pH 10: ATCC25922, 1 h; for MIC after temperature treatment, 0 °C / MIC after temperature treatment, 37 °C / MIC after temperature treatment, 100 °C / MIC in the presence of FeCl3 / MIC in the presence of KCl / MIC in the presence of MgCl2 / MIC in the presence of NH4Cl / MIC in the presence of NaCl / MIC in the presence of ZnCl2 / MIC, Control / MIC, Control (pH 7): ATCC25922, 16 h
Protocol: as §1
The salt, temperature, and pH sensitivities of designed peptides were determined by MIC assay as described previously. For the salt sensitivity assay, peptides were diluted in deionized water containing different salts, and mixed with E. coli ATCC25922 (10^5 CFU/mL). The final physiological concentrations of different salts were as follows: 150 mM NaCl, 4.5 mM KCl, 6 μM NH4Cl, 1 mM MgCl2, 8 μM ZnCl2, and 4 μM FeCl3. For temperature sensitivity, peptides were cooled on ice for 10 min, and incubated at 37 °C and 100 °C for 30 min. For pH sensitivity, peptides were treated with different pH for 1 h. Briefly, peptides were diluted in deionized water, and the pH of the solution was adjusted to 4.0, 6.0, 8.0, and 10.0 with HCl or NaOH. The subsequent steps were the same as for the MIC measurements. These tests were performed three times.

For `N=C(N)NCCC[C@H](NC(=O)CNC(=O)[C@H]1CCCN1C(=O)[C@H](CCCNC(=N)N)NC(=O)[C@H](CCCNC(=N)N)NC(=O)[C@H](Cc1ccccc1)NC(=O)[C@H](Cc1ccccc1)NC(=O)[C@H](CCCNC(=N)N)NC(=O)[C@H](Cc1ccccc1)NC(=O)[C@@H](N)Cc1ccccc1)C(=O)N[C@@H](CCCNC(=N)N)C(=O)N[C@@H](Cc1ccccc1)C(=O)N[C@@H](Cc1ccccc1)C(=O)N[C@@H](CCCNC(=N)N)C(=O)N[C@@H](Cc1ccccc1)C(=O)N[C@@H](Cc1ccccc1)C(N)=O` [FRpG] (H-FFRFFRR[dP]GRRFFRFF-NH2), the “GM (geometric mean of MICs), Gram (−)” value (Gram-negative bacteria) was 13.9 µM, the MIC (S. aureus ATCC29213) was 16 µM (≈ 36.6 µg/mL) and the MIC [1] was 16 µM (≈ 36.6 µg/mL). For the same compound, the MIC (E. coli K88) was 8 µM (≈ 18.3 µg/mL), the MIC [2] was 16 µM (≈ 36.6 µg/mL) and the MIC [3] was 32 µM (≈ 73.1 µg/mL). It also gave an MIC [4] of 32 µM (≈ 73.1 µg/mL), an MIC [5] of 32 µM (≈ 73.1 µg/mL) and an MIC [6] of 16 µM (≈ 36.6 µg/mL). The cell survival rate (RAW 264.7 cells) was 78%, the cell survival rate (HEK293T cells) was 85% and the “GM (geometric mean of MICs), Gram (+)” value (Gram-positive bacteria) was 22.6 µM. The MIC [7] was 8 µM (≈ 18.3 µg/mL), the “MIC after pH treatment, pH 4” value (E. coli ATCC25922) was 16 µM and the “MIC after pH treatment, pH 6” value (E. coli ATCC25922) was 8 µM. For the same compound, the “MIC after pH treatment, pH 8” value (E. coli ATCC25922) was 8 µM, the “MIC after pH treatment, pH 10” value (E. coli ATCC25922) was 32 µM and the “MIC after temperature treatment, 0 °C” value (E. coli ATCC25922) was 8 µM (≈ 18.3 µg/mL). For the same compound, the “MIC after temperature treatment, 37 °C” value (E. coli ATCC25922) was 8 µM (≈ 18.3 µg/mL), the “MIC after temperature treatment, 100 °C” value (E. coli ATCC25922) was 8 µM (≈ 18.3 µg/mL) and the “MIC in the presence of FeCl3” value (E. coli ATCC25922) was 8 µM. For the same compound, the “MIC in the presence of KCl” value (E. coli ATCC25922) was 8 µM, the “MIC in the presence of MgCl2” value (E. coli ATCC25922) was 8 µM and the “MIC in the presence of NH4Cl” value (E. coli ATCC25922) was 8 µM. The “MIC in the presence of NaCl” value (E. coli ATCC25922) was 32 µM, the “MIC in the presence of ZnCl2” value (E. coli ATCC25922) was 8 µM and the “MIC, Control” value (E. coli ATCC25922) was 8 µM (≈ 18.3 µg/mL). The “MIC, Control (pH 7)” value (E. coli ATCC25922) was 8 µM.
`CC[C@H](C)[C@H](N)C(=O)N[C@H](C(=O)N[C@@H](CCCNC(=N)N)C(=O)N[C@H](C(=O)N[C@H](C(=O)N[C@@H](CCCNC(=N)N)C(=O)N[C@@H](CCCNC(=N)N)C(=O)N1CCC[C@@H]1C(=O)NCC(=O)N[C@@H](CCCNC(=N)N)C(=O)N[C@@H](CCCNC(=N)N)C(=O)N[C@H](C(=O)N[C@H](C(=O)N[C@@H](CCCNC(=N)N)C(=O)N[C@H](C(=O)N[C@H](C(N)=O)[C@@H](C)CC)[C@@H](C)CC)[C@@H](C)CC)[C@@H](C)CC)[C@@H](C)CC)[C@@H](C)CC)[C@@H](C)CC` [IRpG] (H-IIRIIRR[dP]GRRIIRII-NH2) was tested, and the “GM (geometric mean of MICs), Gram (−)” value (Gram-negative bacteria) was 16 µM, the MIC (S. aureus ATCC29213) was over 128 µM and the MIC [1] was 16 µM (≈ 32.2 µg/mL). For the same compound, the MIC (E. coli K88) was 16 µM (≈ 32.2 µg/mL), the MIC [2] was over 128 µM and the MIC [3] was 32 µM (≈ 64.4 µg/mL). It also gave an MIC [4] of over 128 µM, an MIC [5] of over 128 µM and an MIC [6] of 32 µM (≈ 64.4 µg/mL). For the same compound, the cell survival rate (RAW 264.7 cells) was 98%, the cell survival rate (HEK293T cells) was 98% and the “GM (geometric mean of MICs), Gram (+)” value (Gram-positive bacteria) was 256 µM. The MIC [7] was 4 µM (≈ 8.05 µg/mL), the “MIC after pH treatment, pH 4” value (E. coli ATCC25922) was 16 µM and the “MIC after pH treatment, pH 6” value (E. coli ATCC25922) was 4 µM. For the same compound, the “MIC after pH treatment, pH 8” value (E. coli ATCC25922) was 8 µM, the “MIC after pH treatment, pH 10” value (E. coli ATCC25922) was 16 µM and the “MIC after temperature treatment, 0 °C” value (E. coli ATCC25922) was 4 µM (≈ 8.05 µg/mL). For the same compound, the “MIC after temperature treatment, 37 °C” value (E. coli ATCC25922) was 4 µM (≈ 8.05 µg/mL), the “MIC after temperature treatment, 100 °C” value (E. coli ATCC25922) was 4 µM (≈ 8.05 µg/mL) and the “MIC in the presence of FeCl3” value (E. coli ATCC25922) was 4 µM. For the same compound, the “MIC in the presence of KCl” value (E. coli ATCC25922) was 4 µM, the “MIC in the presence of MgCl2” value (E. coli ATCC25922) was 8 µM and the “MIC in the presence of NH4Cl” value (E. coli ATCC25922) was 4 µM. The “MIC in the presence of NaCl” value (E. coli ATCC25922) was 32 µM, the “MIC in the presence of ZnCl2” value (E. coli ATCC25922) was 4 µM and the “MIC, Control” value (E. coli ATCC25922) was 4 µM (≈ 8.05 µg/mL). For the same compound, the “MIC, Control (pH 7)” value (E. coli ATCC25922) was 4 µM.
In the case of `CC(C)C[C@H](NC(=O)CN)C(=O)N[C@@H](CCCNC(=N)N)C(=O)N[C@@H](CC(C)C)C(=O)N[C@@H](CC(C)C)C(=O)N[C@@H](CCCNC(=N)N)C(=O)N[C@@H](CCCNC(=N)N)C(=O)N[C@@H](CC(C)C)C(=O)N[C@@H](CC(C)C)C(=O)N[C@@H](CCCNC(=N)N)C(=O)N[C@@H](CCCNC(=N)N)C(=O)N[C@@H](CC(C)C)C(=O)N[C@@H](CC(C)C)C(=O)N[C@@H](CCCNC(=N)N)C(=O)N[C@@H](CC(C)C)C(=O)N1CCC[C@@H]1C(N)=O` [LRα] (H-GLRLLRRLLRRLLRL[dP]-NH2), the “GM (geometric mean of MICs), Gram (−)” value (Gram-negative bacteria) was 3 µM, the MIC (S. aureus ATCC29213) was 8 µM (≈ 16.1 µg/mL) and the MIC [1] was 2 µM (≈ 4.03 µg/mL). The MIC (E. coli K88) was 4 µM (≈ 8.05 µg/mL), the MIC [2] was 4 µM (≈ 8.05 µg/mL) and the MIC [3] was 4 µM (≈ 8.05 µg/mL). For the same compound, the MIC [4] was 16 µM (≈ 32.2 µg/mL), the MIC [5] was 8 µM (≈ 16.1 µg/mL) and the MIC [6] was 4 µM (≈ 8.05 µg/mL). For the same compound, the cell survival rate (RAW 264.7 cells) was “less than 10%”, the cell survival rate (HEK293T cells) was “less than 10%” and the “GM (geometric mean of MICs), Gram (+)” value (Gram-positive bacteria) was 8 µM. The MIC [7] was 2 µM (≈ 4.03 µg/mL), the “MIC after pH treatment, pH 4” value (E. coli ATCC25922) was 2 µM and the “MIC after pH treatment, pH 6” value (E. coli ATCC25922) was 2 µM. For the same compound, the “MIC after pH treatment, pH 8” value (E. coli ATCC25922) was 2 µM, the “MIC after pH treatment, pH 10” value (E. coli ATCC25922) was 4 µM and the “MIC after temperature treatment, 0 °C” value (E. coli ATCC25922) was 2 µM (≈ 4.03 µg/mL). The “MIC after temperature treatment, 37 °C” value (E. coli ATCC25922) was 2 µM (≈ 4.03 µg/mL), the “MIC after temperature treatment, 100 °C” value (E. coli ATCC25922) was 2 µM (≈ 4.03 µg/mL) and the “MIC in the presence of FeCl3” value (E. coli ATCC25922) was 2 µM. For the same compound, the “MIC in the presence of KCl” value (E. coli ATCC25922) was 2 µM, the “MIC in the presence of MgCl2” value (E. coli ATCC25922) was 2 µM and the “MIC in the presence of NH4Cl” value (E. coli ATCC25922) was 2 µM. The “MIC in the presence of NaCl” value (E. coli ATCC25922) was 8 µM, the “MIC in the presence of ZnCl2” value (E. coli ATCC25922) was 2 µM and the “MIC, Control” value (E. coli ATCC25922) was 2 µM (≈ 4.03 µg/mL). For the same compound, the “MIC, Control (pH 7)” value (E. coli ATCC25922) was 2 µM.
Compound `CO/N=C(\C(=O)N[C@@H]1C(=O)N2C(C(=O)O)=C(COC(C)=O)CS[C@H]12)c1csc(N)n1` [cefotaxime, reference compound] has an MIC ([7]; Escherichia coli) of 2 µM (≈ 0.911 µg/mL).
